According to PubChem BioAssay AID493064 (Broad Institute, 2011):
Several values for one entry are separate records, joined by “and”; a condition that tells them apart may be missing. Identical values can stand only once. Inconclusive results are not listed. Activity calls are given as the source filed them. The rule behind the calls is not given here.

Legend:
[1] = PubChem AID 493064; conditions: C. albicans CaCi-8 + fluconazole, Alamar Blue growth, 48 h; at 26 µM (top of the series)
[2] = tested on: C. albicans CaCi-8 + fluconazole, Alamar Blue growth, 48 h; experiment: PubChem AID 493064

SMILES | activity change, negative = inhibition [1] | AC50 [2]
O=C(c1cccc(Cl)c1)N1CCN(c2ccccn2)CC1 | -1.33% (inactive) | 
COC(=O)Cn1nc(C)c2ccccc21 | -17.2% (inactive) | 
O=C(c1ccc(Cl)cc1)N1CCN(c2cccc(C(F)(F)F)n2)CC1 | -8.21% (inactive) | 
O=C(O)c1nn(Cc2ccc(Cl)cc2)c2ccccc12 |  | > 26 µM (inactive)
COC(=O)Cn1nc(-c2ccccc2)c2ccccc21 |  | 3.13 µM
O=C(Cn1nc(-c2ccccc2)c2ccccc21)NCc1ccc(Cl)cc1 | -6.6% (inactive) | 
Cc1ccnc(N2CCN(C(=O)c3ccc(Cl)cc3)CC2)c1 | -6.71% (inactive) | 
O=C(Cn1nc(C(=O)N2CCCCC2)c2ccccc21)N1CCOCC1 | -1.16% (inactive) | 
CC1CCN(C(=O)Cn2c3ccccc3c3nc4n(c(=O)c32)CCS4)CC1 |  | 8.88 µM
CCCCC(=O)N1CCN(c2ccccn2)CC1 | -12.5% (inactive) | 
CC(C)C(=O)N1CCN(c2ccccn2)CC1 | -2.77% (inactive) | 
O=C(Cn1nc(-c2ccccc2)c2cc(Cl)ccc21)N1CCOCC1 |  | > 26 µM (inactive)
COC(=O)Cn1c(-c2ccccc2)nc2ccccc21 | -13.8% (inactive) | 
N#Cc1ccc(N2CCN(C(=O)c3ccc(Cl)cc3)CC2)nc1 |  | > 26 µM (inactive)
O=C(O)Cn1nc(-c2ccccc2)c2ccccc21 | -17.8% (inactive) | 
COc1ccc(C(=O)N2CCN(c3ccccn3)CC2)cc1 |  | 7.53 µM
CCOC(=O)c1c2ccccc2nn1Cc1ccc(Cl)cc1 | 5.94% (inactive) | 
CCN(CC)C(=O)Cn1c2ccccc2c2nc3n(c(=O)c21)CCS3 | 8.8% (inactive) and 7.89% (inactive) | 
O=C(Cn1c2ccc(F)cc2c2nc3n(c(=O)c21)CCS3)N1CCCCC1 | 8.36% (inactive) | 
O=C(c1ccc(Cl)cc1)N1CCN(c2nc3ccccc3s2)CC1 |  | 4.94 µM
